In patent EP0558321A1 (priority 1992, dated 1993):
Structures can show the parent of a compound that is named as a salt. Where two headings read alike, the source gives them in different places.

Columns and labels:
[1] = test system: influenza virus; settings: prior art statement; clinical efficacy not yet verified; cited from earlier work
[2] = test system: MDCK cells
[3] = test system: HSV-1 (Miyama strain); experiment: microbe, parasite or virus in culture; assay type: cell-based, herpes simplex virus type 1
[4] = test system: influenza virus (A/PR/8 strain); experiment: microbe, parasite or virus in culture; assay type: cell-based; settings: unidentified influenza virus, PR/8, MDCK, read-out: Antiviral Activitiy (ΔTCID₅₀)(log₁₀)
[5] = test system: GMK cells
[6] = test system: influenza A virus; settings: prior art statement; cited from earlier work
[7] = test system: influenza B virus; settings: prior art statement; cited from earlier work
[8] = test system: influenza virus; settings: from "Acta Virol.", 28, pp. 501-507 (1984); cited from earlier work
[9] = test system: herpes virus; settings: from "J. Gen. Virol.", 67, pp. 1115-1122 (1986); cited from earlier work
[10] = Human alphaherpesvirus 1, GMK, read-out: Antiviral Activity (ΔTCID₅₀)(log₁₀), compound concentration 10 µg/ml, GMK cells
[11] = Human alphaherpesvirus 1, GMK, read-out: Antiviral Activity (ΔTCID₅₀)(log₁₀), compound concentration 20 µg/ml, GMK cells
[12] = compound concentration 10 µg/ml, GMK cells
[13] = compound concentration 50 µg/ml, GMK cells
[14] = Human alphaherpesvirus 1, GMK, read-out: Antiviral Activity (ΔTCID₅₀)(log₁₀), compound concentration 5 µg/ml, GMK cells
[15] = Human alphaherpesvirus 1, GMK, read-out: Antiviral Activity (ΔTCID₅₀)(log₁₀)

| Molecule | log reduction at 10 µg/mL [3, 10] | log reduction at 5 µg/mL [4] | log reduction at 10 µg/mL [4] | cytotoxicity [5] | further results |
| --- | --- | --- | --- | --- | --- |
| N#C[N-]c1nncs1.[Na+] [LY253963] |  |  |  |  | activity against influenza virus in animal tests [1]: resistant to influenza virus in animal tests |
| CC1(c2ccc(C(O)(C3C4CC5CC(C4)CC3C5)C34CCCN3CCC4)cc2)OCCS1 (centres unmarked) [Prep. Ex. 30, 1-(1-azabicyclo[3.3.0]octan-5-yl)-1-(4-(2-methyl-1,3-thioxolane-2-yl)phenyl)-1-(2-tricyclo[3.3.1.1^3.7]decyl)methan-1-ol] | > 3.17 | > 3 | > 3 | >3.17 (+) | cytotoxicity [2]: >3.00 (+) |
| NC12CC3CC(CC(C3)C1)C2 [Amantadine] |  |  |  |  | efficacy against influenza A virus [6]: efficacious against influenza A virus; efficacy against influenza B virus [7]: not against influenza B virus |
| CN(C)c1ccc(C(O)(C2C3CC4CC(C3)CC2C4)C23CCCN2CCC3)cc1 (centres unmarked) [Prep. Ex. 13, 1-(1-azabicyclo[3.3.0]octan-5-yl)-1-(4-dimethylaminophenyl)-1-(2-tricyclo[3.3.1.1^3.7]decyl)methan-1-ol dihydrochloride] | 0.77 |  | 0.17 |  | cytotoxicity [2]: 0.17 (+); log reduction at 20 µg/mL [3, 11]: 3 |
| COc1cccc(C(O)(C2C3CC4CC(C3)CC2C4)C23CCCN2CCC3)c1 (centres unmarked) [Prep. Ex. 19, 1-(1-azabicyclo[3.3.0]octan-5-yl)-1-(3-methoxyphenyl)-1-(2-tricyclo[3.3.1.1³^.7]decyl)methan-1-ol hydrochloride] | 0 | 0 | 0.17 |  | log reduction at 20 µg/mL [3, 11]: > 2; log reduction at 20 µg/mL [4]: > 3.17 |
| OC(c1ccc(C(F)(F)F)cc1)(C1C2CC3CC(C2)CC1C3)C12CCCN1CCC2 (centres unmarked) [Prep. Ex. 17, 1-(1-azabicyclo[3.3.0]octan-5-yl)-1-(4-trifluoromethylphenyl)-1-(2-tricyclo[3.3.1.1³^.7]decyl)methan-1-ol hydrochloride] | 0.33 | 0.33 | 0.33 | 0.33 (-) | log reduction at 20 µg/mL [3, 11]: 0.33; log reduction at 20 µg/mL [4]: 0.33 |
| CC(=O)c1ccc(C(O)(C2C3CC4CC(C3)CC2C4)C23CCCN2CCC3)cc1 (centres unmarked) [Prep. Ex. 32, 1-(4-acetylphenyl)-1-(1-azabicyclo[3.3.0]octan-5-yl)-1-(2-tricyclo[3.3.1.1³^.7]decyl)methan-1-ol hydrochloride] | 0.33 | 0.5 | 1 | 0.33 (+) | log reduction at 20 µg/mL [4]: 1.16 |
| OC(c1ccc(-c2ccccc2)cc1)(C1C2CC3CC(C2)CC1C3)C12CCCN1CCC2 (centres unmarked) [Prep. Ex. 29, 1-(1-azabicyclo[3.3.0]octan-5-yl)-1-(4-biphenyl)-1-(2-tricyclo[3.3.1.1^3.7]decyl)methan-1-ol hydrochloride] | > 3.17 | > 3 | > 3 | >3.17 (+) | cytotoxicity [2]: >3.00 (+) |
| (1R*)-1-(1-azabicyclo[3.3.0]octan-5-yl)-1-phenyl-1-((3'R*)-3-tricyclo[2.2.1.0]heptyl)methanol hydrochloride [Prep. Ex. 4] |  |  |  |  | Antiviral Activity (ΔTCID₅₀)(log₁₀) [3, 12]: 0.66 (-) log₁₀; Antiviral Activity (ΔTCID₅₀)(log₁₀) [3, 13]: 1.33 (±) log₁₀ |
| CC(N)C12CC3CC(CC(C3)C1)C2 (centres unmarked) [remantadine, Remantadine] |  |  |  |  | efficacy against influenza A virus [6]: efficacious against influenza A virus; efficacy against influenza B virus [7]: not against influenza B virus |
| OC(c1cccc(C(F)(F)F)c1)(C1C2CC3CC(C2)CC1C3)C12CCCN1CCC2 (centres unmarked) [Prep. Ex. 21, 1-(1-azabicyclo[3.3.0]octan-5-yl)-1-(3-trifluoromethylphenyl)-1-(2-tricyclo[3.3.1.1^3.7]decyl)methan-1-ol hydrochloride] | 0.33 | 0 | 0.27 |  | log reduction at 5 µg/mL [3, 14]: 0.5 |
| Cc1ccccc1C(O)(C1C2CC3CC(C2)CC1C3)C12CCCN1CCC2 (centres unmarked) [Prep. Ex. 25, 1-(1-azabicyclo[3.3.0]octan-5-yl)-1-(2-methylphenyl)-1-(2-tricyclo[3.3.1.1^3.7]decyl)methan-1-ol hydrochloride] | > 3 |  |  | >3.00 (+) |  |
| OC(c1ccccc1)(C1C2CC3CC(C2)CC1C3)C12CCCN1CCC2 (centres unmarked) [Prep. Ex. 8, 1-(1-azabicyclo[3.3.0]octan-5-yl)-1-phenyl-1-(2-tricyclo[3.3. 1.1^3.7]decyl)methan-1-ol] |  |  | 0.67 |  | log reduction at 5 µg/mL [3, 15]: 0.5; log reduction at 10 µg/mL [3, 15]: 0.66; log reduction at 20 µg/mL [3, 15]: 2.66; log reduction at 20 µg/mL [4]: > 3.5 |
| (1R*)-1-phenyl-3-piperidino-1-((3'R*)-3-tricyclo[2.2.1.0] heptyl)propan-1-ol hydrochloride [Prep. Ex. 2] |  |  |  |  | Antiviral Activity (ΔTCID₅₀)(log₁₀) [3, 12]: 0.17 (-) log₁₀; Antiviral Activity (ΔTCID₅₀)(log₁₀) [3, 13]: >3.00 (+) log₁₀ |
| Cc1ccc(C(O)(C2C3CC4CC(C3)CC2C4)C23CCCN2CCC3)cc1 (centres unmarked) [Prep. Ex. 27, 1-(1-azabicyclo[3.3.0]octan-5-yl)-1-(4-methylphenyl)-1-(2-tricyclo-[3.3.1.1^3.7]decyl)methan-1-ol hydrochloride] | 2.17 | 0.17 | 0.17 |  | log reduction at 20 µg/mL [3, 11]: > 3; log reduction at 20 µg/mL [4]: 2.17 |
| OC(c1ccc(F)cc1)(C1C2CC3CC(C2)CC1C3)C12CCCN1CCC2 (centres unmarked) [Prep. Ex. 10, 1-(1-azabicyclo[3.3.0]octan-5-yl)-1-(4-fluoropheyl)-1-(2-tricyclo [3.3.1.1^3.7]decyl)methan-1-ol] | 1.17 | 2 | > 3.17 |  | Antiviral Activity (ΔTCID₅₀)(log₁₀) ([3]; compound concentration 5 µg/ml, GMK cells): 0.83 (-) log₁₀ |
| OC(CCN1CCCCC1)(c1ccccc1)C1C2CC3C(C2)C31 (centres unmarked) [Norakin] |  |  |  |  | anti influenza virus action [8]: confirmed to have an anti influenza virus action; anti-viral activity against herpes virus [9]: lack in anti-viral activity against herpes virus |
| OC(c1ccc2ccccc2c1)(C1C2CC3CC(C2)CC1C3)C12CCCN1CCC2 (centres unmarked) [Prep. Ex. 9, 1-(1-azabicyclo[3.3.0]octan-5-yl)-1-(2-naphthyl)-1-(2-tricyclo [3.3.1.1^3.7]decyl)methan-1-ol] | 2.17 |  |  | 2.17 (-) | log reduction at 5 µg/mL [3, 14]: 1.17 |
| CC(C(O)(c1ccccc1)C1C2CC3C(C2)C31)C12CCCN1CCC2 (centres unmarked) [Prep. Ex. 6, 2-(1-azabicyclo[3.3.0]octan-5-yl)-1-phenyl-1-(3-tricyclo [2.2.1.0]heptyl)propan-1-ol] |  |  |  |  | Antiviral Activity (ΔTCID₅₀)(log₁₀) [3, 12]: 1.00 (±) log₁₀ |
| COc1ccccc1C(O)(C1C2CC3CC(C2)CC1C3)C12CCCN1CCC2 (centres unmarked) [Prep. Ex. 23, 1-(1-azabicyclo[3.3.0]octan-5-yl)-1-(2-methoxyphenyl)-1-(2-tricyclo[3.3.1.1^3.7]decyl)methan-1-ol hydrochloride] | 0.17 |  |  | 0.17 (+) |  |
| COc1ccc(C(O)(C2C3CC4CC(C3)CC2C4)C23CCCN2CCC3)cc1 (centres unmarked) [Prep. Ex. 15, 1-(1-azabicyclo[3.3.0]octan-5-yl)-1-(4-methoxyphenyl)-1-(2-tricyclo[3.3.1.1^3.7]decyl)methan-1-ol hydrochloride] | 0.67 | 0 | > 2.17 | 0.67 (-) | log reduction at 20 µg/mL [4]: > 3.5 |
| OC(CCN1CCCCC1)(c1ccccc1)C1CC2C=CC1C2 (centres unmarked) [Akineton] |  |  |  |  | anti influenza virus action [8]: confirmed to have an anti influenza virus action |
| OC(c1ccc(F)cc1)(C1C2CC3CC(C2)CC1C3)C12CCCN1CCC2 (centres unmarked) [Prep. Ex. 11, 1-(1-azabicyclo[3.3.0]octan-5-yl)-1-(4-fluoropheyl)-1-(2-tricyclo [3.3.1.1^3.7]decyl)methan-1-ol hydrochloride] |  |  |  |  | Antiviral Activity (ΔTCID₅₀)(log₁₀) ([3]; compound concentration 5 µg/ml, GMK cells, hydrochloride): 0.00 (-) log₁₀ |
| OC(CCN1CCCCC1)(c1ccccc1)C1C2CC3C(C2)C31 (stereo not drawn) [Prep. Ex. 1, (1R*)-1-phenyl-3-piperidino-1-((3'S*)-3-tricyclo[2.2.1.0]heptyl)propan-1-ol hydrochloride] | 0.83 |  | 0.44 |  | log reduction at 50 µg/mL ([3]; Human alphaherpesvirus 1, GMK, read-out: Antiviral Activity (ΔTCID₅₀)(log₁₀), compound concentration 50 µg/ml, GMK cells): > 3; log reduction at 20 µg/mL [4]: > 3.17 |
| OC(c1ccccc1)(C1C2CC3C(C2)C31)C12CCCN1CCC2 (stereo not drawn) [Prep. Ex. 3, (1R*)-1-(1-azabicyclo[3.3.0]octan-5-yl)1-phenyl-1-[(3'S*)-3-tricyclo[2.2.1.0]heptyl]methan-1-ol hydrochloride] |  |  |  |  | Antiviral Activity (ΔTCID₅₀)(log₁₀) [3, 12]: 0.00 (-) log₁₀; Antiviral Activity (ΔTCID₅₀)(log₁₀) [3, 13]: >3.00 (-) log₁₀ |
